US20040013730A1, “Non-hormonal vaginal contraceptive” (priority 2003, published 2004)

Tests used:
human sperm = experiment: Efficacy of metal salts, albumin and dextran on motility of human sperm in vitro; settings: for concentration at which spermiostatic (motility of sperm arrested): human sperm in vitro
human cervical mucus = experiment: Cervical mucus score (WHO): viscosity, ferning, spinnbarkeit, cellularity, pH; settings: for TOTAL cervical mucus score: pH not included
[1] = ascorbic acid 0.31%, fourth sample (undated)
[2] = ascorbic acid 0.31%, sample Jun. 22, 2000
[3] = ascorbic acid 0.31%, sample Jun. 23, 2000
[4] = ascorbic acid 0.31%, third sample (undated)
[5] = ascorbic acid 0.63%, fourth sample (undated)
[6] = ascorbic acid 0.63%, sample Jun. 22, 2000
[7] = ascorbic acid 0.63%, sample Jun. 23, 2000
[8] = ascorbic acid 0.63%, third sample (undated)
[9] = ascorbic acid 1%, fourth sample (undated)
[10] = ascorbic acid 1%, sample Jun. 22, 2000
[11] = ascorbic acid 1%, sample Jun. 23, 2000
[12] = ascorbic acid 1%, third sample (undated)
[13] = ascorbic acid 1.25%, fourth sample (undated)
[14] = ascorbic acid 1.25%, sample Jun. 22, 2000
[15] = ascorbic acid 1.25%, sample Jun. 23, 2000
[16] = ascorbic acid 1.25%, third sample (undated)
[17] = ascorbic acid 2.50%, fourth sample (undated)
[18] = ascorbic acid 2.50%, sample Jun. 22, 2000
[19] = ascorbic acid 2.50%, sample Jun. 23, 2000
[20] = ascorbic acid 2.50%, third sample (undated)
[21] = ascorbic acid 5%, fourth sample (undated)
[22] = ascorbic acid 5%, sample Jun. 22, 2000
[23] = ascorbic acid 5%, sample Jun. 23, 2000
[24] = ascorbic acid 5%, third sample (undated)
[25] = ascorbic acid 10%, fourth sample (undated)
[26] = ascorbic acid 10%, sample Jun. 22, 2000
[27] = ascorbic acid 10%, sample Jun. 23, 2000
[28] = ascorbic acid 10%, third sample (undated)

With `[Cl-].[Cl-].[Mg+2]` [magnesium chloride] the “concentration at which spermiostatic (motility of sperm arrested)” value (human sperm) was 35 mM.
albumin was tested, and the sperm motility (human sperm; 10% albumin) was “decreased sperm motility almost close to that of 12.5 mM concentration of ferrous gluconate”, the sperm completely immobilized (human sperm; 20% albumin) was roughly 97% and the sperm completely immobilized (human sperm; 40% albumin) was roughly 97%. The spermiostatic effects (human sperm; lower concentrations of albumin and dextran) was “not significant”.
For `O=S(=O)([O-])[O-].[Cu+2]` [copper sulfate], the immobilization of sperm (human sperm; 25 mM solution) was 93.3%, the immobilization of sperm (human sperm; 37.5 mM solution) was “completely immobilized all the sperm” and the additional spermiostatic effect (human sperm; 2.5% dextran added to 6.5-mM copper sulfate solution) was “no additional spermiostatic effect”. For the same compound, the “concentration at which spermiostatic (motility of sperm arrested)” value (human sperm) was 6.25 mM.
In the case of `O=C1O[C@H]([C@@H](O)CO)C(O)=C1O` [ascorbic acid, L-ascorbic acid], the “overall viscosity of the mucus” value (human cervical mucus; L-ascorbic acid from 0.31% to a range of 1-2.5%) is reported as “increased in direct relationship with increasing concentrations”, the “Cellularity (cervical mucus score)” value (human cervical mucus; [1]) is reported as 0 and the “Ferning (cervical mucus score)” value (human cervical mucus; [1]) is reported as 0. The “Spinnbarkiet (cervical mucus score)” value (human cervical mucus; [1]) was 1 ± .35, the “Viscosity (cervical mucus score)” value (human cervical mucus; [1]) was 2 ± .79 and the “TOTAL cervical mucus score” value (human cervical mucus; [1]) was 3.2. The “Cellularity (cervical mucus score)” value (human cervical mucus; [2]) was 2 ± .86, the “Ferning (cervical mucus score)” value (human cervical mucus; [2]) was 2 ± .86 and the “Spinnbarkiet (cervical mucus score)” value (human cervical mucus; [2]) was 0 (less than 1 cm). The “Viscosity (cervical mucus score)” value (human cervical mucus; [2]) was 3 ± .79, the “TOTAL cervical mucus score” value (human cervical mucus; [2]) was 7.3 and the “Cellularity (cervical mucus score)” value (human cervical mucus; [3]) was 2 ± .58. The “Ferning (cervical mucus score)” value (human cervical mucus; [3]) was 0, the “Spinnbarkeit (cervical mucus score)” value (human cervical mucus; [3]) was 1 ± .35 and the “Viscosity (cervical mucus score)” value (human cervical mucus; [3]) was 3 ± .79. The “TOTAL cervical mucus score” value (human cervical mucus; [3]) was 6.2, the “Cellularity (cervical mucus score)” value (human cervical mucus; [4]) was 1 ± .58 and the “Ferning (cervical mucus score)” value (human cervical mucus; [4]) was 0. The “Spinnbarkeit (cervical mucus score)” value (human cervical mucus; [4]) was 0 (less than 1 cm), the “Viscosity (cervical mucus score)” value (human cervical mucus; [4]) was 2 ± .79 and the “TOTAL cervical mucus score” value (human cervical mucus; [4]) was 3.15. For the same compound, the “Cellularity (cervical mucus score)” value (human cervical mucus; [5]) was 0, the “Ferning (cervical mucus score)” value (human cervical mucus; [5]) was 3 ± .86 and the “Spinnbarkiet (cervical mucus score)” value (human cervical mucus; [5]) was 1 ± .49. For the same compound, the “Viscosity (cervical mucus score)” value (human cervical mucus; [5]) was 3 ± .81, the “TOTAL cervical mucus score” value (human cervical mucus; [5]) was 7.2 and the “Cellularity (cervical mucus score)” value (human cervical mucus; [6]) was 0. For the same compound, the “Ferning (cervical mucus score)” value (human cervical mucus; [6]) was 0, the “Spinnbarkiet (cervical mucus score)” value (human cervical mucus; [6]) was 1 ± .49 and the “Viscosity (cervical mucus score)” value (human cervical mucus; [6]) was 1 ± .81. For the same compound, the “TOTAL cervical mucus score” value (human cervical mucus; [6]) was 2.3, the “Cellularity (cervical mucus score)” value (human cervical mucus; [7]) was 0 and the “Ferning (cervical mucus score)” value (human cervical mucus; [7]) was 0. For the same compound, the “Spinnbarkeit (cervical mucus score)” value (human cervical mucus; [7]) was 1 ± .49, the “Viscosity (cervical mucus score)” value (human cervical mucus; [7]) was 2 ± .81 and the “TOTAL cervical mucus score” value (human cervical mucus; [7]) was 3.2. The “Cellularity (cervical mucus score)” value (human cervical mucus; [8]) was 1 ± .61, the “Ferning (cervical mucus score)” value (human cervical mucus; [8]) was 0 and the “Spinnbarkeit (cervical mucus score)” value (human cervical mucus; [8]) was 1 ± .49. The “Viscosity (cervical mucus score)” value (human cervical mucus; [8]) was 1 ± .81, the “TOTAL cervical mucus score” value (human cervical mucus; [8]) was 3.15 and the “Cellularity (cervical mucus score)” value (human cervical mucus; [9]) was 0. For the same compound, the “Ferning (cervical mucus score)” value (human cervical mucus; [9]) was 3 ± .82, the “Spinnbarkiet (cervical mucus score)” value (human cervical mucus; [9]) was 1 ± .51 and the “Viscosity (cervical mucus score)” value (human cervical mucus; [9]) was 2 ± .75. For the same compound, the “TOTAL cervical mucus score” value (human cervical mucus; [9]) was 6.2, the “Cellularity (cervical mucus score)” value (human cervical mucus; [10]) was 2 ± .82 and the “Ferning (cervical mucus score)” value (human cervical mucus; [10]) was 2 ± .82. The “Spinnbarkiet (cervical mucus score)” value (human cervical mucus; [10]) was 1 ± .51, the “Viscosity (cervical mucus score)” value (human cervical mucus; [10]) was 1 ± .75 and the “TOTAL cervical mucus score” value (human cervical mucus; [10]) was 6.3. The “Cellularity (cervical mucus score)” value (human cervical mucus; [11]) was 0, the “Ferning (cervical mucus score)” value (human cervical mucus; [11]) was 0 and the “Spinnbarkeit (cervical mucus score)” value (human cervical mucus; [11]) was 1 ± .51. The “Viscosity (cervical mucus score)” value (human cervical mucus; [11]) was 2 ± .75, the “TOTAL cervical mucus score” value (human cervical mucus; [11]) was 3.2 and the “Cellularity (cervical mucus score)” value (human cervical mucus; [12]) was 0. For the same compound, the “Ferning (cervical mucus score)” value (human cervical mucus; [12]) was 0, the “Spinnbarkeit (cervical mucus score)” value (human cervical mucus; [12]) was 1 ± .51 and the “Viscosity (cervical mucus score)” value (human cervical mucus; [12]) was 2 ± .75. The “TOTAL cervical mucus score” value (human cervical mucus; [12]) was 3.15, the “Cellularity (cervical mucus score)” value (human cervical mucus; [13]) was 1 ± .53 and the “Ferning (cervical mucus score)” value (human cervical mucus; [13]) was 2 ± 1.13. For the same compound, the “Spinnbarkiet (cervical mucus score)” value (human cervical mucus; [13]) was 1 ± 51, the “Viscosity (cervical mucus score)” value (human cervical mucus; [13]) was 3 ± .95 and the “TOTAL cervical mucus score” value (human cervical mucus; [13]) was 7.2. The “Cellularity (cervical mucus score)” value (human cervical mucus; [14]) was 0, the “Ferning (cervical mucus score)” value (human cervical mucus; [14]) was 0 and the “Spinnbarkiet (cervical mucus score)” value (human cervical mucus; [14]) was 1 ± .51. The “Viscosity (cervical mucus score)” value (human cervical mucus; [14]) was 1 ± .95, the “TOTAL cervical mucus score” value (human cervical mucus; [14]) was 2.3 and the “Cellularity (cervical mucus score)” value (human cervical mucus; [15]) was 0. The “Ferning (cervical mucus score)” value (human cervical mucus; [15]) was 0, the “Spinnbarkeit (cervical mucus score)” value (human cervical mucus; [15]) was 1 ± .51 and the “Viscosity (cervical mucus score)” value (human cervical mucus; [15]) was 3 ± .95. For the same compound, the “TOTAL cervical mucus score” value (human cervical mucus; [15]) was 4.2, the “Cellularity (cervical mucus score)” value (human cervical mucus; [16]) was 1 ± .53 and the “Ferning (cervical mucus score)” value (human cervical mucus; [16]) was 0. For the same compound, the “Spinnbarkeit (cervical mucus score)” value (human cervical mucus; [16]) was 0 (less than 1 cm), the “Viscosity (cervical mucus score)” value (human cervical mucus; [16]) was 1 ± .95 and the “TOTAL cervical mucus score” value (human cervical mucus; [16]) was 2.15. For the same compound, the “Cellularity (cervical mucus score)” value (human cervical mucus; [17]) was 1 ± .49, the “Ferning (cervical mucus score)” value (human cervical mucus; [17]) was 1 ± .82 and the “Spinnbarkiet (cervical mucus score)” value (human cervical mucus; [17]) was 1 ± .14. The “Viscosity (cervical mucus score)” value (human cervical mucus; [17]) was 2 ± .61, the “TOTAL cervical mucus score” value (human cervical mucus; [17]) was 5.2 and the “Cellularity (cervical mucus score)” value (human cervical mucus; [18]) was 0. For the same compound, the “Ferning (cervical mucus score)” value (human cervical mucus; [18]) was 0, the “Spinnbarkiet (cervical mucus score)” value (human cervical mucus; [18]) was 1 ± .14 and the “Viscosity (cervical mucus score)” value (human cervical mucus; [18]) was 2 ± .61. The “TOTAL cervical mucus score” value (human cervical mucus; [18]) was 3.3, the “Cellularity (cervical mucus score)” value (human cervical mucus; [19]) was 1 ± .49 and the “Ferning (cervical mucus score)” value (human cervical mucus; [19]) was 0. For the same compound, the “Spinnbarkeit (cervical mucus score)” value (human cervical mucus; [19]) was 1 ± .14, the “Viscosity (cervical mucus score)” value (human cervical mucus; [19]) was 0 and the “TOTAL cervical mucus score” value (human cervical mucus; [19]) was 2.2. For the same compound, the “Cellularity (cervical mucus score)” value (human cervical mucus; [20]) was 1 ± .49, the “Ferning (cervical mucus score)” value (human cervical mucus; [20]) was 0 and the “Spinnbarkeit (cervical mucus score)” value (human cervical mucus; [20]) was 0 (less than 1 cm). For the same compound, the “Viscosity (cervical mucus score)” value (human cervical mucus; [20]) was 1 ± .61, the “TOTAL cervical mucus score” value (human cervical mucus; [20]) was 2.15 and the “Cellularity (cervical mucus score)” value (human cervical mucus; [21]) was 1 ± .66. For the same compound, the “Ferning (cervical mucus score)” value (human cervical mucus; [21]) was 0, the “Spinnbarkiet (cervical mucus score)” value (human cervical mucus; [21]) was 1 ± .35 and the “Viscosity (cervical mucus score)” value (human cervical mucus; [21]) was 2 ± .52. The “TOTAL cervical mucus score” value (human cervical mucus; [21]) was 4.2, the “Cellularity (cervical mucus score)” value (human cervical mucus; [22]) was 0 and the “Ferning (cervical mucus score)” value (human cervical mucus; [22]) was 0. The “Spinnbarkiet (cervical mucus score)” value (human cervical mucus; [22]) was 1 ± .35, the “Viscosity (cervical mucus score)” value (human cervical mucus; [22]) was 2 ± .52 and the “TOTAL cervical mucus score” value (human cervical mucus; [22]) was 3.3. For the same compound, the “Cellularity (cervical mucus score)” value (human cervical mucus; [23]) was 0, the “Ferning (cervical mucus score)” value (human cervical mucus; [23]) was 0 and the “Spinnbarkeit (cervical mucus score)” value (human cervical mucus; [23]) was 0 (less than 1 cm). For the same compound, the “Viscosity (cervical mucus score)” value (human cervical mucus; [23]) was 2 ± .52, the “TOTAL cervical mucus score” value (human cervical mucus; [23]) was 2.2 and the “Cellularity (cervical mucus score)” value (human cervical mucus; [24]) was 0. For the same compound, the “Ferning (cervical mucus score)” value (human cervical mucus; [24]) was 0, the “Spinnbarkeit (cervical mucus score)” value (human cervical mucus; [24]) was 1 ± .35 and the “Viscosity (cervical mucus score)” value (human cervical mucus; [24]) was 2 ± .25. For the same compound, the “TOTAL cervical mucus score” value (human cervical mucus; [24]) was 2.15, the “Cellularity (cervical mucus score)” value (human cervical mucus; [25]) was 0 and the “Ferning (cervical mucus score)” value (human cervical mucus; [25]) was 0. The “Spinnbarkiet (cervical mucus score)” value (human cervical mucus; [25]) was 0 (less than 1 cm), the “Viscosity (cervical mucus score)” value (human cervical mucus; [25]) was 0 and the “TOTAL cervical mucus score” value (human cervical mucus; [25]) was 0.2. For the same compound, the “Cellularity (cervical mucus score)” value (human cervical mucus; [26]) was 1 ± .53, the “Ferning (cervical mucus score)” value (human cervical mucus; [26]) was 1 ± .53 and the “Spinnbarkiet (cervical mucus score)” value (human cervical mucus; [26]) was 1 ± .26. The “Viscosity (cervical mucus score)” value (human cervical mucus; [26]) was 1 ± .69, the “TOTAL cervical mucus score” value (human cervical mucus; [26]) was 4.3 and the “Cellularity (cervical mucus score)” value (human cervical mucus; [27]) was 1 ± .51. The “Ferning (cervical mucus score)” value (human cervical mucus; [27]) was 1 ± .53, the “Spinnbarkeit (cervical mucus score)” value (human cervical mucus; [27]) was 1 ± .26 and the “Viscosity (cervical mucus score)” value (human cervical mucus; [27]) was 2 ± .69. For the same compound, the “TOTAL cervical mucus score” value (human cervical mucus; [27]) was 5.2, the “Cellularity (cervical mucus score)” value (human cervical mucus; [28]) was 1 ± .51 and the “Ferning (cervical mucus score)” value (human cervical mucus; [28]) was 0. For the same compound, the “Spinnbarkeit (cervical mucus score)” value (human cervical mucus; [28]) was 1 ± .26, the “Viscosity (cervical mucus score)” value (human cervical mucus; [28]) was 1 ± .69 and the “TOTAL cervical mucus score” value (human cervical mucus; [28]) was 3.15.
